Experimental data as given in patent US11446301B2, “Quinoline analogs as phosphatidylinositol 3-kinase inhibitors” (NANJING ZHENGXIANG PHARMACEUTICALS CO., LTD., priority 2016, dated 2022).
Read-outs that look alike come from different tables or passages of the source.

Key:
[1] = PK profiles after iv and PO dosing in rats; type: in vivo; settings: oral dose 10 mg/kg, SD rats, vs idelalisib
Description: Compound 2 was dosed by both iv and PO in the rats.

[2] = tested on: human hepatocytes; experiment: Hepatocyte stability (parent disappearance in cryopreserved hepatocytes); type: in vitro ADME
Description: The hepatocyte assay was used to evaluate the metabolic stability of test articles (TA) following incubation in cryopreserved hepatocytes by monitoring parent drug disappearance via […]. The TA with 1% final DMSO concentration was incubated with 0.5 million hepatocytes/ml at 1 μM substrate in duplicate. The incubation was carried out at 37° C. with 5% CO2 and saturating humidity. Samples were taken at 0, 1, 2, and 3 hours to monitor the disappearance of TA and a half-life (t ½) was determined. Table 2 below summarizes the t½ values (e.g. t ½) collected from this Example.

[3] = IV; data from idelalisib NDA filing; cited from earlier work
[4] = cited from earlier work

## C[C@H](Nc1nc(N)nc(N)c1C#N)c1cc2ccc(F)cc2nc1-c1ccccn1 (stereo in doubt) [Compound 2, (S)-2,4-Diamino-6-[1-(7-fluoro-2-pyridin-2-yl-quinolin-3-yl)-ethyla-mino]-pyrimidine-5-carbonitrile]
[1]
  Oral exposure corrected with dose (AUCinf/dose) higher than that of idelalisib: 20 fold

## C[C@H](Nc1nc(N)nc(N)c1C#N)c1cc2ccc(F)cc2nc1-c1ccccc1S(C)(=O)=O (stereo in doubt) [Compound 4, (S)-2,4-Diamino-6-{1-[7-fluoro-2-(2-methanesulfonyl-phenyl)-quinoli-n-3-yl]-ethylamino}-pyrimidine-5-carbonitrile]
[2]; fold vs compound E
  improved stability in human hepatocytes (longer half-life) than compound E: 1.3 ×

## C[C@H](Nc1nc(N)nc(N)c1C#N)c1cc2ccc(F)cc2nc1-c1ccccc1 [Compound 1, (S)-2,4-diamino-6-[1-(7-fluoro-2-phenyl-quinolin-3-yl)-ethylamino]-pyrimidine-5-carbonitrile]
[2]; fold vs compound D
  improved stability in human hepatocytes (longer half-life) than compound D: 2.7 ×

## CC[C@H](Nc1ncnc2[nH]cnc12)c1nc2cccc(F)c2c(=O)n1-c1ccccc1 [Idelalisib, idelalisib]
[3]
  Tmax: 3.6 min
[4]; idelalisib in combination trials
  Fatal and/or serious hepatotoxicity, patients: 11%
[4]; idelalisib monotherapy
  Fatal and/or serious hepatotoxicity, patients: 18%
